This note sets out measurements from PubChem BioAssay (NCI).

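1) Cells in 96-well plates. 2) Compound, 48 h, 5 concentrations. 3) Linear interpolation between surrounding doses. 4) Unreached endpoint = highest concentration. Here, GI50 denotes the concentration required for 50% inhibition of growth. TGI marks complete inhibition of growth.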

One assay concerns EKVX NSCLC. As to the kind of experiment: NCI anticancer screen, dose series, 48 h.
`[O]=[V]([OH])([OH])[OH]`: the GI50 was above 100 µM and the TGI is above 100 µM.
`COc1cc(/C=C/c2cc(/C=C/c3ccc(O)c(OC)c3)n(C(=O)c3ccccc3Br)n2)ccc1O`: the GI50 was 4.72 µM and the TGI is above 100 µM.

A further assay concerns A498 renal. Briefly: NCI anticancer screen, dose series, 48 h.
With `[O]=[V]([OH])([OH])[OH]`, the GI50 is above 100 µM and the TGI was above 100 µM.
As to `COc1cc(/C=C/c2cc(/C=C/c3ccc(O)c(OC)c3)n(C(=O)c3ccccc3Br)n2)ccc1O`, the GI50 is 3.04 µM and the TGI worked out at 8.71 µM.
Consider `S=C1SCN(Cc2ccccc2)CN1Cc1ccco1`, for which the GI50 was 21.6 µM and the TGI turned out to be 69.7 µM.
For `COc1ccccc1CNCCN1C(=O)c2ccc3c4c(ccc(c24)C1=O)C(=O)N(CCNCc1ccccc1OC)C3=O` the same measures were 1.49 µM and 2.92 µM.
For the compound `C#Cc1ccc(-n2c(/C=C/c3ccc(O)cc3)nc3ncccc3c2=O)cc1`, the GI50 was 2.48 µM and the TGI was found to be 6.88 µM.
The matching figures for `COCCN(Cc1ccc(F)cc1)c1ccc(CO)c(Cl)c1`: 0.048 µM and 0.193 µM.

Another assay relates to CCRF-CEM leukemia. Briefly: NCI anticancer screen, dose series, 48 h.
With `[O]=[V]([OH])([OH])[OH]`, the GI50 is above 100 µM and the TGI is above 100 µM.
For `COc1cc(/C=C/c2cc(/C=C/c3ccc(O)c(OC)c3)n(C(=O)c3ccccc3Br)n2)ccc1O`, the GI50 was 0.841 µM and the TGI was 6.14 µM.
The matching figures for `S=C1SCN(Cc2ccccc2)CN1Cc1ccco1`: 2.75 µM and 18.5 µM.
Consider `COc1ccccc1CNCCN1C(=O)c2ccc3c4c(ccc(c24)C1=O)C(=O)N(CCNCc1ccccc1OC)C3=O`, for which the GI50 was 0.244 µM.
As to `C#Cc1ccc(-n2c(/C=C/c3ccc(O)cc3)nc3ncccc3c2=O)cc1`, the GI50 is 3.3 µM and the TGI was above 100 µM.
Consider `COCCN(Cc1ccc(F)cc1)c1ccc(CO)c(Cl)c1`, for which the GI50 is 45.2 µM and the TGI is above 100 µM.

In another assay the test system is MCF7 breast. As to the kind of experiment: NCI anticancer screen, dose series, 48 h.
As to `[O]=[V]([OH])([OH])[OH]`, the GI50 was above 100 µM and the TGI is above 100 µM.
`COc1cc(/C=C/c2cc(/C=C/c3ccc(O)c(OC)c3)n(C(=O)c3ccccc3Br)n2)ccc1O`: the GI50 was 3 µM and the TGI is 13 µM.
The matching figures for `S=C1SCN(Cc2ccccc2)CN1Cc1ccco1`: 1.78 µM and 16.1 µM.
The matching figures for `COc1ccccc1CNCCN1C(=O)c2ccc3c4c(ccc(c24)C1=O)C(=O)N(CCNCc1ccccc1OC)C3=O`: 0.198 µM and 0.492 µM.
The matching figures for `C#Cc1ccc(-n2c(/C=C/c3ccc(O)cc3)nc3ncccc3c2=O)cc1`: 3.04 µM and above 100 µM.
As to `COCCN(Cc1ccc(F)cc1)c1ccc(CO)c(Cl)c1`, the GI50 was 2.79 µM and the TGI was above 100 µM.

Another assay has as its system HOP-62 NSCLC. As to the kind of experiment: NCI anticancer screen, dose series, 48 h.
As to `[O]=[V]([OH])([OH])[OH]`, the GI50 is above 100 µM and the TGI is above 100 µM.
As for `COc1cc(/C=C/c2cc(/C=C/c3ccc(O)c(OC)c3)n(C(=O)c3ccccc3Br)n2)ccc1O`, the GI50 was 3.41 µM and the TGI came to 16.3 µM.
For `S=C1SCN(Cc2ccccc2)CN1Cc1ccco1` the same measures were 5.33 µM and 26.8 µM.
The matching figures for `COc1ccccc1CNCCN1C(=O)c2ccc3c4c(ccc(c24)C1=O)C(=O)N(CCNCc1ccccc1OC)C3=O`: 0.221 µM and 0.603 µM.
On to `C#Cc1ccc(-n2c(/C=C/c3ccc(O)cc3)nc3ncccc3c2=O)cc1`, for which the GI50 was 5.66 µM and the TGI is 55.7 µM.
The matching figures for `COCCN(Cc1ccc(F)cc1)c1ccc(CO)c(Cl)c1`: 13.5 µM and above 100 µM.

A further assay relates to T-47D breast. Briefly: NCI anticancer screen, dose series, 48 h.
Consider `[O]=[V]([OH])([OH])[OH]`, for which the GI50 was above 100 µM and the TGI was above 100 µM.
As to `COc1cc(/C=C/c2cc(/C=C/c3ccc(O)c(OC)c3)n(C(=O)c3ccccc3Br)n2)ccc1O`, the GI50 is 2.93 µM and the TGI was determined as 13.2 µM.
As to `S=C1SCN(Cc2ccccc2)CN1Cc1ccco1`, the GI50 was 3.41 µM and the TGI is 21.9 µM.
The matching figures for `COc1ccccc1CNCCN1C(=O)c2ccc3c4c(ccc(c24)C1=O)C(=O)N(CCNCc1ccccc1OC)C3=O`: 0.481 µM and 1.27 µM.
For `C#Cc1ccc(-n2c(/C=C/c3ccc(O)cc3)nc3ncccc3c2=O)cc1` the same measures were 4.63 µM and above 100 µM.
The matching figures for `COCCN(Cc1ccc(F)cc1)c1ccc(CO)c(Cl)c1`: 0.748 µM and 7.04 µM.

Another assay deals with KM12 colon. Briefly: NCI anticancer screen, dose series, 48 h.
In the case of `[O]=[V]([OH])([OH])[OH]`, the GI50 is above 100 µM and the TGI was above 100 µM.
Regarding `COc1cc(/C=C/c2cc(/C=C/c3ccc(O)c(OC)c3)n(C(=O)c3ccccc3Br)n2)ccc1O`, the GI50 is 2.22 µM and the TGI is above 100 µM.
The matching figures for `S=C1SCN(Cc2ccccc2)CN1Cc1ccco1`: 1.52 µM and 10.6 µM.
For `COc1ccccc1CNCCN1C(=O)c2ccc3c4c(ccc(c24)C1=O)C(=O)N(CCNCc1ccccc1OC)C3=O` the same measures were 0.165 µM and 0.35 µM.
The matching figures for `C#Cc1ccc(-n2c(/C=C/c3ccc(O)cc3)nc3ncccc3c2=O)cc1`: 3.81 µM and 60.3 µM.
`COCCN(Cc1ccc(F)cc1)c1ccc(CO)c(Cl)c1`: the GI50 was 33.8 µM and the TGI is above 100 µM.

The next assay concerns BT-549 breast. Briefly: NCI anticancer screen, dose series, 48 h.
With `[O]=[V]([OH])([OH])[OH]`, the GI50 is above 100 µM and the TGI was above 100 µM.
For `COc1cc(/C=C/c2cc(/C=C/c3ccc(O)c(OC)c3)n(C(=O)c3ccccc3Br)n2)ccc1O`, the GI50 was 2.12 µM and the TGI turned out to be 7.75 µM.
The matching figures for `S=C1SCN(Cc2ccccc2)CN1Cc1ccco1`: 2.91 µM and 12.3 µM.
For `COc1ccccc1CNCCN1C(=O)c2ccc3c4c(ccc(c24)C1=O)C(=O)N(CCNCc1ccccc1OC)C3=O`, the GI50 is 0.502 µM and the TGI came to 1.64 µM.
Consider `C#Cc1ccc(-n2c(/C=C/c3ccc(O)cc3)nc3ncccc3c2=O)cc1`, for which the GI50 was 7.51 µM and the TGI was determined as 87.4 µM.
The matching figures for `COCCN(Cc1ccc(F)cc1)c1ccc(CO)c(Cl)c1`: 40.4 µM and above 100 µM.

For the next assay, the system named is SNB-75 CNS. As to the kind of experiment: NCI anticancer screen, dose series, 48 h.
In the case of `[O]=[V]([OH])([OH])[OH]`, the GI50 is above 100 µM and the TGI is above 100 µM.
For `COc1cc(/C=C/c2cc(/C=C/c3ccc(O)c(OC)c3)n(C(=O)c3ccccc3Br)n2)ccc1O`, the GI50 was 2.79 µM and the TGI was 15.4 µM.
Consider `S=C1SCN(Cc2ccccc2)CN1Cc1ccco1`, for which the GI50 was 4.09 µM and the TGI was 21.9 µM.
For `COc1ccccc1CNCCN1C(=O)c2ccc3c4c(ccc(c24)C1=O)C(=O)N(CCNCc1ccccc1OC)C3=O` the same measures were 1.4 µM and 2.83 µM.
The matching figures for `C#Cc1ccc(-n2c(/C=C/c3ccc(O)cc3)nc3ncccc3c2=O)cc1`: 0.948 µM and 32.5 µM.
For the compound `COCCN(Cc1ccc(F)cc1)c1ccc(CO)c(Cl)c1`, the GI50 was 16.6 µM and the TGI is above 87.4 µM.

A further assay relates to UO-31 renal. As to the kind of experiment: NCI anticancer screen, dose series, 48 h.
With `[O]=[V]([OH])([OH])[OH]`, the GI50 was above 100 µM and the TGI is above 100 µM.
`COc1cc(/C=C/c2cc(/C=C/c3ccc(O)c(OC)c3)n(C(=O)c3ccccc3Br)n2)ccc1O`: the GI50 was 2.36 µM and the TGI was 34.1 µM.
On to `S=C1SCN(Cc2ccccc2)CN1Cc1ccco1`, for which the GI50 was 4.56 µM and the TGI was 18.7 µM.
Take `COc1ccccc1CNCCN1C(=O)c2ccc3c4c(ccc(c24)C1=O)C(=O)N(CCNCc1ccccc1OC)C3=O`: the GI50 is 0.841 µM and the TGI was 2.14 µM.
For `C#Cc1ccc(-n2c(/C=C/c3ccc(O)cc3)nc3ncccc3c2=O)cc1` the same measures were 3.79 µM and 33.7 µM.
For `COCCN(Cc1ccc(F)cc1)c1ccc(CO)c(Cl)c1` the same measures were 15.5 µM and above 100 µM.
